The values below come from publication PMC10119423, “From PERK to RIPK1: Design, synthesis and evaluation of novel potent and selective necroptosis inhibitors” (Frontiers in Chemistry, 2023).

The IC50 is the concentration needed to halve the response being measured.

Where two headings read alike, the source gives them in different places.

The test system of one assay is panel of 294 kinases. On the set-up: method as in Axten et al., 2012. Conditions: 10 µM, ref Axten et al., 2012; cited from earlier work.
The subject of the next assay is MEFs. Nature of the assay: RIPK1 kinase-dependent apoptosis (hTNF + TAK1i) in MEFs, Sytox Green. Type of assay: cell-based. The note with it: Mus musculus, TAK1i + hTNF (100 pg/mL). The text has this: In MEFs, TNF together with the pan caspases inhibitor zVAD.fmk induces RIPK1-dependent necroptosis while TNF together with TAK1 inhibitor induces RIPK1 kinase-dependent apoptosis. We also included the conditions selected for the Western blot experiments, where necroptosis was induced by the combination of hTNF, zVAD.fmk and TAK1 inhibitor.

In another assay the test system is HT-29. Nature of the assay: Necroptosis (hTNF + TAK1i + zVAD.fmk) in HT-29 cells, Sytox Green. Conditions: Homo sapiens, HT-29, read-out: Necroptosis hTNF + TAK1i + zVAD.fmk HT-29 IC50.
The next assay has as its target T1, RIPK1 (Mus musculus, UniProt Q60855).
T1 construct: endogenous in cells; host or cells: immortalized mouse embryonic fibroblasts (MEFs, C57Bl6/J)
T1 sequence (Q60855 1-656): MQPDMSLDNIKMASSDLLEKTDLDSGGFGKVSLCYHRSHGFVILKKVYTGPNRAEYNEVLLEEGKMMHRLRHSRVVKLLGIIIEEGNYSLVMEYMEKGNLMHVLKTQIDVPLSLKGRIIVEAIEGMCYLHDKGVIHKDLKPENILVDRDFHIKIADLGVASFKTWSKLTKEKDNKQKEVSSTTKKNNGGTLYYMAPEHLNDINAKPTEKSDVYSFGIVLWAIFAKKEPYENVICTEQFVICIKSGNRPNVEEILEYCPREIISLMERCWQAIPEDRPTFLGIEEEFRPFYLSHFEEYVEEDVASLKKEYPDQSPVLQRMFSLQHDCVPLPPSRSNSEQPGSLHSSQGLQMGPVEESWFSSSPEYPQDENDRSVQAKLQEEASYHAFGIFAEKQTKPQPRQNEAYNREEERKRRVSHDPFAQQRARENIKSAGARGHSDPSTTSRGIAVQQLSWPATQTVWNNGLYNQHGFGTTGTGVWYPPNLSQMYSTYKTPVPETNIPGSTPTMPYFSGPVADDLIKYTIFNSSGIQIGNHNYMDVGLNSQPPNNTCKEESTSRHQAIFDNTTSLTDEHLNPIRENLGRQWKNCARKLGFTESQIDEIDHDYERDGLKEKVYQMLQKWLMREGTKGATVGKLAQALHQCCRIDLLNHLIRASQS
In words: RIPK1 autophosphorylation (pS166) by Western blot in MEFs stimulated with hTNF + TAK1i + zVAD.fmk. The assay is classed as cell-based. The note with it: immortalised MEFs, 30 min pretreatment with zVAD.fmk 50 μM, TAK1i 1 μM and compound, hTNF 20 ng/ml for 2.5 h, read-out: RIPK1 inhibition (IC50 estimated from a Western blot). How it is done:
MEFs were seeded in 6-well plates at a density of 300.000 cells/well in 2 mL. The next day, the cells were suspended in 1 mL of medium and pre-treated for 30 min with the indicated compounds at 1/5 dilutions series for PERK ranging from 5 to 0.04 µM and 1 μg/mL of Tm followed by 4 h treatment with 20 ng/mL of hTNF. For RIPK1, the cells were pre-treated at 1/10 dilutions series ranging from 10 to 0.01 nM, 50 µM zVAD.fmk and 1 µM TAKi before stimulation with 20 ng/mL of hTNF for 2.5 h. Then, the cells were washed two times with 1 mL of ice-cold PBS before lysis in 0.2 mL of Laemmli buffer 1x (10% (w/v) SDS, 50% glycerol, 0.5% bromophenol blue, 250 mM Tris–HCl pH 6.8) and 250 mM of dithiothreitol (DTT). The cell lysate was then collected and boiled at 95 °C for 10min and stored at −20°C. Proteins expression was later monitored by immunoblotting.
Activation of PERK was induced by stimulation of the cells with Tunicamycin, as previsouly reported ([Bull and Thiede, 2012]). More precisely, the immortalised MEFs were pre-incubated for 30 min with the analogues 18–34 at different concentrations (0.04, 0.2, 1, and 5 µM) prior to 4 h stimulation with Tunicamycin (1 μg/mL). […] Their activities were evaluated by comparing the intensity of the signal to unstimulated MEFs (considered as zero phosphorylation) and Tunicamycin stimulated cells (considered as 100% PERK phosphorylation). The 12 compounds (18–20, 22–29 and 34) that had lost their inhibitory capacity on PERK were then tested for their ability to inhibit RIPK1 as shown in Figures 6A–H. Activation and autophosphorylation of RIPK1 was induced by stimulating the cells with TNF in the presence of TAK1 inhibitor and of the pan-caspases inhibitor zVAD.fmk, a well established necroptotic trigger ([Vanlangenakker et al., 2011]). The MEFs were pre-incubated for 30 min with the different compounds (0.01 nM–1000 nM) and then stimulated with human TNF (20 ng/mL) for 2.5 h. Similar to the PERK assessment, IC50 values for RIPK1 inhibition were estimated as a range of concentrations, and are reported in Table 1. These experiments provide an estimation of the specificity of our analogues against PERK and RIPK1 in comparison to the benchmark GSK’157 already reported as a potent PERK and RIPK1 inhibitor.

Another assay relates to 300 kinases. Set-up: method as in Axten et al., 2013. The note with it: 10 µM, out of 300 kinases; ref Axten et al., 2013; cited from earlier work.
The next assay relates to immortalized MEFs. In words: RIPK1 kinase-dependent necroptosis (hTNF + zVAD.fmk) in MEFs, Sytox Green.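 Further: cell death taken as background-corrected Sytox Green fluorescence relative to the maximal signal of cells fully permeabilized with 0.1% Triton X-100.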 The assay is classed as cell-based, mouse. The note with it: Mus musculus, 24 h.

Experimental for HT-29: In brief, the cells were seeded in duplicate at 10,000 cells per well in a 96-well adherent plate and incubated overnight at 37°C with 5% CO2. […] All the compound stock solutions were prepared in DMSO at 200 µM concentration. After stimulating the cells with human TNF at 20 ng/mL the plate was transferred to the incubator. Sytox Green intensity was measured in function of time at 0, 14 and 24 h with an excitation filter of 485 nm, an emission filter of 520 nm. The cell death was calculated by subtracting the background fluorescence from the induced Sytox Green fluorescence and by dividing the obtained result by the maximal fluorescence (minus the background fluorescence) obtained by permeabilization of the cells by using Triton X-100 at a final concentration of 0.1%. Curves were plotted in GraphPad 9 for the IC50 calculation.
To induce necroptosis in human colorectal adenocarcinoma cell line (HT-29) together with hTNF and the pan caspases inhibitor zVAD.fmk, TAK1 inhibitor is also needed.
Experimental for immortalized MEFs: In brief, the cells were seeded in duplicate at 10,000 cells per well in a 96-well adherent plate and incubated overnight at 37°C with 5% CO2. […] All the compound stock solutions were prepared in DMSO at 200 µM concentration. After stimulating the cells with human TNF at 20 ng/mL the plate was transferred to the incubator. […] The cell death was calculated by subtracting the background fluorescence from the induced Sytox Green fluorescence and by dividing the obtained result by the maximal fluorescence (minus the background fluorescence) obtained by permeabilization of the cells by using Triton X-100 at a final concentration of 0.1%. Curves were plotted in GraphPad 9 for the IC50 calculation.
Consequently, the compounds were evaluated for their potential protection of RIPK1-mediated necroptosis following human TNF stimulation.

On to `Cn1cc(-c2ccc3c(c2)CCN3C(=O)Cc2cccc(C(F)(F)F)c2)c2c(N)ncnc21` [GSK’414, 7-methyl-5-(1-{[3-(trifluoromethyl)phenyl]acetyl}-2,3-dihydro-1H-indol-5-yl)-7H-pyrrolo[2,3-d]pyrimidin-4-amine], for which, in the assay with panel of 294 kinases, the “number of kinases inhibited with more than 85%” value was 20.

For the molecule `Cc1cccc(CC(=O)N2CCc3c2ccc(-c2cn(C)c4ncnc(N)c24)c3F)n1` [Compound 10, reference compound], the IC50 was 3700 pM with MEFs; 3100 pM in the assay with HT-29; 100 to 1000 pM at RIPK1; 420 pM with immortalized MEFs (read-out: IC50 necroptosis); 700 pM in the assay with immortalized MEFs (MEFs, hTNF + zVAD.fmk (20 ng/mL), Table 2, read-out: Necroptosis hTNF + zVAD.fmk MEFs IC50). For the same molecule, in the assay on 300 kinases, the “number of kinases inhibited with more than 80%” value is given as 17.
